Experimental data taken from EP0488224A2, “Fermentationproduct of a Verticimonosporium strain and feed additivs containing a linear peptide” (MITSUBISHI KASEI CORPORATION, priority 1990, dated 1992).
Where two headings read alike, the source gives them in different places.

How the values were obtained:
Caenorhabditis elegans = assay: Anti-nematode activity (1): growth and motility of nematodes in suspension; format: cell-based; parameters: key: 5 scales, - ±, +, ++ and +++; 5 scales, - ±, +, ++ and +++; 5 scales, - ±, +, ++ and +++; 5 scales, - ±, +, ++ and +++; 5 scales, - ±, +, ++ and +++; conditions: 12.5 ppm, 20 °C, one week
Description: Anti-nematode activity of substance MBA090-18 was evaluated using Caenorhabditis elegans, a soil […] nematode.
Caenorhabditis elegans was suspended into sterilized water at the density of 20 - 30 heads/100 µl. To the suspension was added substance MBA090-18 at the concentration of 12.5 ppm. The mixture was incubated at 20 °C for one week while the growth and motility of nematodes being observed. […] The anti-nematode activity was evaluated and expressed according to the following 5 scales, - ±, +, ++ and +++.

[1] = value from a literature; cited from earlier work
[2] = Acute toxicity on oral administration; format: in vivo; conditions: five male mouse
Description: The acute toxicity of substance MBA090-18 was determined using five male mouse on oral administration.

rumen fermentation = assay: Effect on feed efficiency in vivo (rumen content of a goat given feed additive); conditions: 80 mg/day in feed, percentage to control (100)
Description: The effect of linear peptide compounds on the feed effeciency was evaluated in vivo using a ruminant animal.
A goat (a native species of Japan, 25 Kg) equipped with rumen fistula was used. As a feed additive, either of linear peptide compounds, MBA090-18 and gramicidin D, was administered to the animal. The rumen content was collected through the fistula and subjected to the assay in the same manner as described in the above Experiment 4 to obtain the total amount of VFAs, the production ratio of propionic acid to acetic acid (PA/AA) and the number of survival protozoas. In the table, values are shown as the percentage to the control values (100) obtained by keeping animal with the same feed ration to which neither of test compounds has been added.

rumen bacterial solution = assay: Effect on digestion of cellulose by rumen bacterial solution; parameters: species or system goat; conditions: 5 µg/ml, 37 °C, 3 days; 0 µg/ml control 72
Description: The effect of substance MBA090-18 on the digestion of cellulose in the rumen was evaluated.
A goat (a native species of Japan, 20 Kg) equipped with rumen fistula was again used. A preparation of rumen bacterial solution was prepared by collecting the rumen content through the fistula, followed by a prompt centrifugation at 3000 rpm for 10 min to remove feed debris and protozoa.
To the 10 ml of the bacterial solution was added 50 ml of a basal medium described in the above Experiment 3 except that 0.4 g of cellulose powder and 6 mg of vitamin mixture are supplemented. The flask is then sealed anaerobically under CO₂ gas and incubated at 37 °C for 3 days. When the incubation finished, the cultured broth was assayed about the digestion of cellulose.

| Molecule | Antinematode Activity growth (Caenorhabditis elegans) | Antinematode Activity mobility (Caenorhabditis elegans) | acute toxicity [2] [mg/kg] | further results |
| --- | --- | --- | --- | --- |
| CN[C@H]1C[C@@H](N)[C@H](O)[C@@H](O[C@@H]2O[C@H](CO)[C@H](O)[C@@H]3OC4(O[C@H]23)O[C@H]([C@@H](N)CO)[C@H](O)[C@H](O)[C@H]4O)[C@@H]1O (some centres unmarked) [Hygromycin B] | ++ | ± | – | – |
| Avermectin | +++ | +++ | – | acute toxicity [1]: 35 mg/kg |
| CC[C@@H](C(=O)[C@@H](C)[C@@H](O)[C@H](C)[C@@H]1O[C@@H]([C@@H](CC)C(=O)O)CC[C@@H]1C)[C@H]1O[C@]2(C=C[C@@H](O)[C@]3(CC[C@@](C)([C@H]4CC[C@](O)(CC)[C@H](C)O4)O3)O2)[C@H](C)C[C@@H]1C [Salinomysin] | – | – | 50 | – |
| Gramicidin D | – | – | – | total VFAs (%) (rumen fermentation): 103%; PA/AA (%) (rumen fermentation; propionic acid to acetic acid): 125%; Protozoa (%) (rumen fermentation; surviving protozoa): 86% |
| Monensin | – | – | 43.8 | Digestion Rate of Cellulose (%) (rumen bacterial solution): 10% |
